Data taken from patent US6686380B2, “Treatment of refractory tumors using epothilone derivatives” (Bristol-Myers Squibb Company, priority 2001, dated 2004).

How the values were obtained:
clonogenic tumor cells = assay: Clonogenic cell colony-formation assay (IC90); format: cell-based; conditions: clonogenic cytotoxicity assay; read-out: concentration needed to kill 90% of clonogenic cancer cells (IC90)
Procedure: Clonogenic cell colony-formation assay: the potency required for the test compound and paclitaxel to kill clonogenic tumor cells (cells that are able to divide indefinitely to form a colony) in vitro was evaluated by a colony formation assay. The concentration needed to kill 90% of clonogenic cancer cells (IC90) was determined.

[1] = tested on: HCT116 and A2780 tumor cell lines; assay: Clonogenic cell colony-formation assay, paclitaxel-sensitive lines; format: cell-based, human; conditions: two sensitive tumor cell lines (HCT116 and A2780)
Procedure: (§1) The concentration needed to kill 90% of clonogenic cancer cells (IC90) was determined.

[2] = tested on: HCT116/VM46, A2780Tax and Pat-7 cell lines; assay: Cytotoxicity against cell lines that had developed resistance to paclitaxel (FIG. 2); format: cell-based, human
Procedure: as §1

[3] = tested on: tubulin isolated from calf brain; assay: Tubulin polymerization assay; format: biochemical; conditions: based on EC0.01
Procedure: Tubulin polymerization assay: the potency required for the test compound and paclitaxel to polymerize tubulin isolated from calf brain was evaluated by published techniques. The effective concentration (EC0.01) was defined as the interpolated concentration capable of inducing an initial slope of optical density (OD) of 0.01 OD/minute rate and is calculated using the formula: EC0.01=concentration/slope. EC0.01 values are expressed as the mean with standard deviation obtained from 3 different concentrations.

[4] = tested on: Pat-7 human ovarian carcinoma; assay: In vivo antitumor testing, Pat-7 xenograft; set-up: species or system nude mice
Description: (§2) In Vivo Antitumor Testing: The following human tumors were used: ovarian carcinoma A2780, A2780Tax and Pat-7 (established from an ovarian tumor biopsy from a patient who had developed resistance to paclitaxel); HCT116, HCT116/VM46 and LS174T colon carcinomas, Pat-21 breast carcinoma, and Pat-26 pancreatic carcinoma (from a liver metastasis biopsy). Pat-7, Pat-21 ad Pat-26 xenografts were established initially from primary tumor biopsies directly as xenotransplants grown in whole-body irradiated nude mice without any intervening in vitro cell culturing steps. The innately paclitaxel-insensitive murine fibrosarcoma M5076 was also employed. The human tumor xenografts were maintained in Balb/c nu/nu nude mice. M5076 was maintained in C57BL/6 mice. Tumors were propagated as subcutaneous transplants in the appropriate mouse strain using tumor fragments obtained from donor mice. Tumor passage occurred biweekly for murine tumors and approximately every two to eight weeks for the various human tumor lines. With regard to efficacy testing, M5076 tumors were implanted in (C57B1/6×DBA/2)F1 hybrid mice, and human tumors were implanted in nude mice. All tumor implants for efficacy testing were subcutaneous (sc).
The required number of animals needed to detect a meaningful response (6-8) were pooled at the start of the experiment and each was given a subcutaneous implant of a tumor fragment (˜50 mg) with a 13-gauge trocar. For treatment of early-stage tumors, the animals were again pooled before distribution to the various treatment and control groups. For treatment of animals with advanced-stage disease, tumors were allowed to grow to the pre-determined size window (tumors outside the range were excluded) and animals were evenly distributed to various treatment and control groups. Treatment of each animal was based on individual body weight. Treated animals were checked daily for treatment related toxicity/mortality. Each group of animals was weighed before the initiation of treatment (Wt1) and then again following the last treatment dose (Wt2).
Tumor weights (mg) were estimated from the formula: […]
The maximum tolerated dose (MTD) is defined as the dose level immediately above which excessive toxicity (i.e. more than one death) occurred. […] Activity is described at the OD.
Tumor response end-point was expressed in terms of tumor growth delay (T-C value), defined as the difference in time (days) required for the treated tumors (T) to reach a predetermined target size compared to those of the control group (C).

[5] = tested on: Pat-7, A2780Tax, HCT116/VM46, Pat-21 and M5076 tumors; assay: In vivo antitumor testing, paclitaxel-resistant tumors; set-up: species or system mice; conditions: all five paclitaxel-resistant tumors (four human and one murine)
Description: as §2, with “Tumor passage occurred biweekly for murine tumors and approximately every two to eight weeks for the various human tumor lines. With regard to efficacy testing, M5076 tumors were implanted in (C57B1/6×DBA/2)F1 hybrid mice, and human tumors were implanted in nude mice. All tumor implants for efficacy testing were subcutaneous (sc).” left out
(§3) The required number of animals needed to detect a meaningful response (6-8) were pooled at the start of the experiment and each was given a subcutaneous implant of a tumor fragment (˜50 mg) with a 13-gauge trocar. […] For treatment of animals with advanced-stage disease, tumors were allowed to grow to the pre-determined size window (tumors outside the range were excluded) and animals were evenly distributed to various treatment and control groups. […]

[6] = tested on: A2780 human ovarian carcinoma; HCT116 and LS 174T human colon carcinoma; assay: In vivo antitumor testing, paclitaxel-sensitive xenografts; set-up: species or system nude mice; conditions: three paclitaxel-sensitive human tumor xenografts
Description: as §2, with “Tumor passage occurred biweekly for murine tumors and approximately every two to eight weeks for the various human tumor lines. With regard to efficacy testing, M5076 tumors were implanted in (C57B1/6×DBA/2)F1 hybrid mice, and human tumors were implanted in nude mice. All tumor implants for efficacy testing were subcutaneous (sc).” left out
as §3

human tumor xenografts [7] = assay: Antitumor activity by oral route of administration; format: in vivo, mice or rats; conditions: two different human tumor xenografts
Procedure: (§4) For administration to rodents, the subject compound was administered in either 1:9 ethanol/water, or 1:1:8 Cremophor®/ethanol/water. Final dilution for parenteral administration was made with water one hour before administration. Final dilution for oral administration was made with 0.25 M sodium phosphate buffer. Paclitaxel was dissolved in a 50/50 mixture of ethanol and Cremophor® and maintained at 4° C. Final dilution was made immediately prior to injection to prevent undesirable precipitation. Tumor cell lines HCT 116 human carcinoma and HCT116/V/M46 cells were maintained on McCoy's medium and 10% heat-inactivated fetal bovine serum. A2780 human ovarian carcinoma cells and A2780Tax cells were maintained in IMEM and 10% heat-inactivated fetal bovine serum. All other cell lines were maintained in RPM11640 medium with 10% heat-inactivated fetal bovine serum.

[8] = tested on: panel of tumor cell lines; assay: In vitro cytotoxicity, tetrazolium-based colorimetric assay; conditions: read-out: median cytotoxic concentration (IC50 values); 21 cell lines tested; 72 h incubation; FIG. 1
Procedure: as §4
The in vivo cytotoxicity was assessed in tumor cells by a tetrazolium-based colorimetric assay at 492 nm. The cells were seeded 24 h prior to drug addition. The reagents were added following a 72 h incubation with serially diluted test compound. Measurements were taken after a further three hours incubation. The results are expressed as median cytotoxic concentration (IC50 values).

human tumor xenografts [9] = conditions: general statement; cited from earlier work

SMILES	IC90 (clonogenic tumor cells) [nM]	potency in killing clonogenic cells compared with paclitaxel [1]	retention of cytotoxic potency in resistant versus sensitive lines ([2]; HCT116/VM46, A2780Tax and Pat-7 compared to the sensitive lines)	cytotoxicity compared with paclitaxel ([2]; three cell lines that had developed resistance to paclitaxel, FIG. 2)	tubulin polymerization potency relative to paclitaxel [3]	LCK ([4]; PO, every 2 days x 5, at MTD, pH 8.0 buffered vehicle, first of two experiments) [LCK]	LCK ([4]; PO, every 2 days x 5, at MTD, pH 8.0 buffered vehicle, second of two experiments) [LCK]	oral antitumor activity ([4]; PO, every 2 days x 5 schedule)	antitumor efficacy compared with paclitaxel [5]	antitumor activity compared with paclitaxel [6]	antitumor activity given orally compared with IV administration (human tumor xenografts [7])	IC50 [8] [nM]	LCK ([4]; IV, optimal dose and schedule, concomitantly tested, first of two experiments) [LCK]	LCK ([4]; IV, optimal dose and schedule, concomitantly tested, second of two experiments) [LCK]	activity when administered by the oral route (human tumor xenografts [9])
C/C(=C\c1csc(C)n1)[C@@H]1CC2O[C@]2(C)CCC[C@H](C)[C@H](O)[C@@H](C)C(=O)C(C)(C)[C@@H](O)CC(=O)N1 (relative stereo) [test compound, [1 S-[1R*,3R*(E),7R*,10S*,11R*,12R*,16S*]]-7,11-1-Dihydroxy-8,8,10,12,16-pentamethyl-3-[1-methyl-2-(2-methyl-4-thiazolyl)ethenyl]-4-aza-17-oxabicyclo[14.1.0]heptadecane-5,9-dione]	~7.5	similarly potent	almost completely retaining its cytotoxic potency	far better than paclitaxel	about 2.5 fold	3.1	2.5	highly active orally	more efficacious than paclitaxel	equivalent to paclitaxel	equivalent to that produced by IV drug administration	1.4 to 34.5	–	–	–
CC(=O)O[C@H]1C(=O)[C@@]2(C)[C@H]([C@H](OC(=O)c3ccccc3)[C@]3(O)C[C@H](OC(=O)[C@H](O)[C@@H](NC(=O)c4ccccc4)c4ccccc4)C(C)=C1C3(C)C)[C@]1(OC(C)=O)CO[C@@H]1C[C@@H]2O [paclitaxel, reference compound]	–	–	–	–	–	–	–	–	–	–	–	–	1.3	1.2	typically inactive
